Experimental data published in the supplement of paper PMC8149375.

Key:
Conditions in all cases: treatment: drug + dasatinib (fixed dose, not stated); 5 days
769-P [1] = experiment: GI50 of drug in presence of dasatinib; higher = less potent
Procedure: (§1)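 Primary HTS combination arm: 8 RCC cell lines treated with 8 doses (up to 10 uM) of each library drug plus a fixed dose of dasatinib (dose not stated) for 5 days; viability read by CellTiter-Glo and normalised to DMSO. GI50 was fitted with XLfit, AUC is the area under the dose-response curve, and minimum viability is the lowest fraction of DMSO viability across doses.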

786-O [2] = experiment: as above
Procedure: as §1

A498 [3] = experiment: as above
Procedure: as §1

ACHN [4] = experiment: as above
Procedure: as §1

CAKI-1 [5] = experiment: as above
Procedure: as §1

SN12C [6] = experiment: as above
Procedure: as §1

TK-10 [7] = experiment: as above
Procedure: as §1

UO-31 [8] = experiment: as above
Procedure: as §1

769-P [9] = experiment: minimum viability across doses, drug + dasatinib, relative to DMSO (fraction); higher = less growth inhibition
Procedure: as §1

786-O [10] = experiment: as above
Procedure: as §1

A498 [11] = experiment: as above
Procedure: as §1

ACHN [12] = experiment: as above
Procedure: as §1

CAKI-1 [13] = experiment: as above
Procedure: as §1

SN12C [14] = experiment: as above
Procedure: as §1

TK-10 [15] = experiment: as above
Procedure: as §1

UO-31 [16] = experiment: as above
Procedure: as §1

769-P [17] = experiment: AUC of dose-response viability curve, drug + dasatinib, normalised to DMSO (arbitrary (AUC of normalised viability)); higher = less growth inhibition
Procedure: as §1

786-O [18] = experiment: as above
Procedure: as §1

A498 [19] = experiment: as above
Procedure: as §1

ACHN [20] = experiment: as above
Procedure: as §1

CAKI-1 [21] = experiment: as above
Procedure: as §1

SN12C [22] = experiment: as above
Procedure: as §1

TK-10 [23] = experiment: as above
Procedure: as §1

UO-31 [24] = experiment: as above
Procedure: as §1

GI50 of drug (786-O [2]) | GI50 of drug (ACHN [4]) | Structure (SMILES) | GI50 of drug (769-P [1]) | GI50 of drug (A498 [3]) | GI50 of drug (CAKI-1 [5]) | GI50 of drug (SN12C [6]) | GI50 of drug (TK-10 [7]) | GI50 of drug (UO-31 [8]) | minimum viability across doses (769-P [9]) | minimum viability across doses (786-O [10]) | minimum viability across doses (A498 [11]) | minimum viability across doses (ACHN [12]) | minimum viability across doses (CAKI-1 [13]) | minimum viability across doses (SN12C [14]) | minimum viability across doses (TK-10 [15]) | minimum viability across doses (UO-31 [16]) | AUC of dose-response viability curve (769-P [17]) | AUC of dose-response viability curve (786-O [18]) | AUC of dose-response viability curve (A498 [19]) | AUC of dose-response viability curve (ACHN [20]) | AUC of dose-response viability curve (CAKI-1 [21]) | AUC of dose-response viability curve (SN12C [22]) | AUC of dose-response viability curve (TK-10 [23]) | AUC of dose-response viability curve (UO-31 [24])
> 10000 nM | 3780 nM | Br.Cc1ccc(C(=O)Cn2c3c(sc2=N)CCCC3)cc1 [Pifithrin-α] + Cc1nc(Nc2ncc(C(=O)Nc3c(C)cccc3Cl)s2)cc(N2CCN(CCO)CC2)n1 [dasatinib] | > 10000 nM | > 10000 nM | > 10000 nM | > 10000 nM | > 10000 nM | > 10000 nM | 0.696 | 0.535 | 0.901 | 0.391 | 0.529 | 0.656 | 0.59 | 0.998 | 2.63 | 2.26 | 3.57 | 2.03 | 2.13 | 2.53 | 2.3 | 4.02
478 nM | 50.7 nM | COc1ccc(-c2ccc3c(N4CCOCC4)nc(N4C[C@@H](C)O[C@@H](C)C4)nc3n2)cc1CO + Cc1nc(Nc2ncc(C(=O)Nc3c(C)cccc3Cl)s2)cc(N2CCN(CCO)CC2)n1 [dasatinib] | 360 nM | 1830 nM | 250 nM | 482 nM | 379 nM | 1100 nM | 0.136 | 0.176 | 0.252 | 0.0839 | 0.0643 | 0.196 | 0.168 | 0.0195 | 1.75 | 1.93 | 2.77 | 1.33 | 1.56 | 2.03 | 1.87 | 2.56
> 10000 nM | 1050 nM | Cc1cc2c(F)c(Oc3ncnn4cc(OC[C@@H](C)OC(=O)[C@H](C)N)c(C)c34)ccc2[nH]1 + Cc1nc(Nc2ncc(C(=O)Nc3c(C)cccc3Cl)s2)cc(N2CCN(CCO)CC2)n1 [dasatinib] | > 10000 nM | > 10000 nM | 7600 nM | > 10000 nM | > 10000 nM | 9860 nM | 0.617 | 0.504 | 0.733 | 0.316 | 0.431 | 0.605 | 0.674 | 0.457 | 2.41 | 2.48 | 3.16 | 1.89 | 2.59 | 2.47 | 2.69 | 3.27
> 10000 nM | > 10000 nM | Cn1cc(C2=C(c3ccc(Cl)cc3Cl)C(=O)NC2=O)c2ccccc21 + Cc1nc(Nc2ncc(C(=O)Nc3c(C)cccc3Cl)s2)cc(N2CCN(CCO)CC2)n1 [dasatinib] | 5290 nM | > 10000 nM | > 10000 nM | > 10000 nM | > 10000 nM | 6210 nM | 0.288 | 0.587 | 0.929 | 0.548 | 0.562 | 0.642 | 0.532 | 0.191 | 2.36 | 2.55 | 3.8 | 2.2 | 0.956 | 2.53 | 2.74 | 3.15

The remaining lines, values behind:

Structure (SMILES) | GI50 of drug (786-O [2]) | GI50 of drug (ACHN [4]) | GI50 of drug (769-P [1]) | GI50 of drug (A498 [3]) | GI50 of drug (CAKI-1 [5]) | GI50 of drug (SN12C [6]) | GI50 of drug (TK-10 [7]) | GI50 of drug (UO-31 [8]) | minimum viability across doses (769-P [9]) | minimum viability across doses (786-O [10]) | minimum viability across doses (A498 [11]) | minimum viability across doses (ACHN [12]) | minimum viability across doses (CAKI-1 [13]) | minimum viability across doses (SN12C [14]) | minimum viability across doses (TK-10 [15]) | minimum viability across doses (UO-31 [16]) | AUC of dose-response viability curve (769-P [17]) | AUC of dose-response viability curve (786-O [18]) | AUC of dose-response viability curve (A498 [19]) | AUC of dose-response viability curve (ACHN [20]) | AUC of dose-response viability curve (CAKI-1 [21]) | AUC of dose-response viability curve (SN12C [22]) | AUC of dose-response viability curve (TK-10 [23]) | AUC of dose-response viability curve (UO-31 [24])
O=c1[nH]c2ccc(Cl)cc2c(N[C@@H]2CN3CCC2CC3)c1-c1nc2ccccc2[nH]1 [CHIR-124] + Cc1nc(Nc2ncc(C(=O)Nc3c(C)cccc3Cl)s2)cc(N2CCN(CCO)CC2)n1 [dasatinib] | 37.4 nM | 11.2 nM | 101 nM | 293 nM | 87.1 nM | 1000 nM | 70.6 nM | 73.9 nM | 0.0198 | 0.00497 | 0.0177 | 0.018 | 0.0428 | 0.00873 | 0.151 | 0.00945 | 1.31 | 0.817 | 2.13 | 0.737 | 1.3 | 1.76 | 1.37 | 1.52
C=CC(=O)Nc1cc2c(Nc3ccc(F)c(Cl)c3)ncnc2cc1OCCCN1CCOCC1 [CI-1033 (Canertinib)] + Cc1nc(Nc2ncc(C(=O)Nc3c(C)cccc3Cl)s2)cc(N2CCN(CCO)CC2)n1 [dasatinib] | 1340 nM | 14.1 nM | 46.4 nM | 4070 nM | 739 nM | 969 nM | 283 nM | 1330 nM | 0.185 | 0.372 | 0.0275 | 0.11 | 0.0894 | 0.295 | 0.133 | 0.00946 | 1.46 | 2.11 | 2.74 | 1.31 | 1.84 | 2.13 | 1.79 | 2.4
COC(=O)c1ccc2c(c1)NC(=O)/C2=C(\Nc1ccc(N(C)C(=O)CN2CCN(C)CC2)cc1)c1ccccc1 [BIBF1120 (Vargatef)] + Cc1nc(Nc2ncc(C(=O)Nc3c(C)cccc3Cl)s2)cc(N2CCN(CCO)CC2)n1 [dasatinib] | > 10000 nM | 147 nM | > 10000 nM | > 10000 nM | 430 nM | 2620 nM | > 10000 nM | 1730 nM | 0.656 | 0.694 | 0.664 | 0.23 | 0.125 | 0.412 | 0.637 | 0.128 | 2.47 | 2.98 | 3.35 | 1.73 | 1.77 | 2.3 | 2.88 | 2.64
